From PMC8026785, “The pharmacokinetics of [^18F]UCB-H revisited in the healthy non-human primate brain” (EJNMMI Research, 2021)

How the values were obtained:
[1] = Plasma free fraction by ultrafiltration; type: in vitro ADME; conditions: NHP plasma, before tracer injection
Experimental: The fraction of [^18F]UCB-H in NHP plasma samples not bound to plasma protein was measured before PET injection using a previously described ultrafiltration method. In brief, standard amounts of [^18F]UCB-H (≈15 kBq) were added to 200 μL plasma that was applied to Microcon® filtration devices containing an YM-10 membrane (Millipore, France). The devices were centrifuged for 10 min at 10,000 g (Sigma 2-16KL, France). [^18F]UCB-H activity concentration in the resulting ultrafiltrate (≈70 μL, CFP) and a sample of plasma (CP) were counted. The free fraction (fp) was calculated as: fp = CFP/CP and measured in triplicates.

SV2A = target: T1, SV2A (Macaca fascicularis, UniProt Q4R4X3); assay: Displacement PET studies of [^18F]UCB-H; type: in vivo, cynomolgus monkeys (Macaca fascicularis); conditions: about half of total uptake displaceable
T1 construct: The current study evaluates [^18F]UCB-H pharmacokinetics in healthy NHPs; from tissue; host or cells: brain of living healthy cynomolgus monkeys (in vivo PET)
Experimental: All four non-human primates (NHP) underwent a 2-h (2 h) test and retest PET scan; two NHP underwent an additional 4-h (4 h) retest PET scan. Three NHP underwent one 4-h (4 h) displacement PET scan. Arterial blood sampling was performed during test and retest scans with PET imaging spaced by at least 3 weeks between each scan. To this end, the femoral artery opposite to the saphenous vein used for radioligand injection was cannulated. For the 2-h (2 h) scans, we collected in total 28 blood samples of 1 mL: 16 samples during the first 5 min followed by […] every 5 min and […] every 10 min. For the 4 h scans, we collected an additional 6 samples every 20 min during the last two hours (34 samples in total). Larger samples (2 – 3 mL) were collected at 5, 15, 30, 60, 90, 120 min (2 h) and at 180, 240 min (4 h) for metabolite analysis. Displacement of [^18F]UCB-H was done by intravenous (IV) administration 90 min after [^18F]UCB-H injection of a bolus of 30 mg/kg LEV, or of 80 µg/kg (≈250 nmol/kg) or 5 mg/kg (≈15 µmol/kg) of cold [^19F]-UCB-H. Full experimental design of all NHP is outlined in Additional file 1: Table 1.
Solvents and LEV (C8H14N2O2; MM 170.21 g/mol) were obtained at Sigma-Aldrich® (France), and [^19F]-UCB-H (C16H12F4N2O; MM 324.28 g/mol) was synthesised as previously described. Injectable solutions of [^19F]-UCB-H for displacement studies were prepared with a mixture of Tetrahydrofuran (THF), Médialipide® and glucose at 2.5% as previously described. LEV was dissolved in a glucose solution of 2.5% to reach a concentration of 90 mg/mL.
PET image analysis was performed using PMOD software version 3.8 (PMOD Technologies Ltd., Zurich, Suisse). After individual co-registration of PET-MR images, a cynomolgus atlas published by Ballanger and coworkers was normalized to PET images to extract time activity curves in different brain regions. Volumes of interest (VOI) were cerebral white matter (16.7 cm^3), striatum (0.24 cm^3), thalamus (0.89 cm^3), cerebellum (3.83 cm^3), frontal—(2.50 cm^3), parietal—(5.35 cm^3), and temporal (8.22 cm^3) cortex, and whole brain (72.2 cm^3) as a composite region of all regions in the atlas. [^18F]UCB-H pharmacokinetics were evaluated by analyzing the time activity curves of the test- and retest scans using 1- and 2-tissue compartment models (unconstrained and constrained with global K1/k2 coupled fit across all regions, further referred to as 2TCM and 2TCM-c), and Logan graphical analysis with a fixed t* at 60 min [33] using the arterial plasma input function corrected for radio-metabolites to derive the volume of distribution in each region. Percentage standard error (%SE) was estimated from the theoretical parameter covariance matrix. Only reliable estimates (%SE less than 25%) were included in the current analyses. For the three drug studies, percent displacement of the total activity in the whole brain was estimated relative to an average baseline constructed from the two 4 h baseline studies. Briefly, Standardized Uptake Value (SUV) time activity curves (TACs) were calculated for the two baseline and the three displacement studies. Then, each curve was normalized to the SUV at t = 90 min, corresponding to the timeframe immediately before the administration of the drugs in the displacement studies. Baseline curves were averaged and the percent displacement of total activity was calculated as (baseline-displacement)/baseline at a given time post drug administration (see “Results”).

T1 sequence (Q4R4X3 whole entry): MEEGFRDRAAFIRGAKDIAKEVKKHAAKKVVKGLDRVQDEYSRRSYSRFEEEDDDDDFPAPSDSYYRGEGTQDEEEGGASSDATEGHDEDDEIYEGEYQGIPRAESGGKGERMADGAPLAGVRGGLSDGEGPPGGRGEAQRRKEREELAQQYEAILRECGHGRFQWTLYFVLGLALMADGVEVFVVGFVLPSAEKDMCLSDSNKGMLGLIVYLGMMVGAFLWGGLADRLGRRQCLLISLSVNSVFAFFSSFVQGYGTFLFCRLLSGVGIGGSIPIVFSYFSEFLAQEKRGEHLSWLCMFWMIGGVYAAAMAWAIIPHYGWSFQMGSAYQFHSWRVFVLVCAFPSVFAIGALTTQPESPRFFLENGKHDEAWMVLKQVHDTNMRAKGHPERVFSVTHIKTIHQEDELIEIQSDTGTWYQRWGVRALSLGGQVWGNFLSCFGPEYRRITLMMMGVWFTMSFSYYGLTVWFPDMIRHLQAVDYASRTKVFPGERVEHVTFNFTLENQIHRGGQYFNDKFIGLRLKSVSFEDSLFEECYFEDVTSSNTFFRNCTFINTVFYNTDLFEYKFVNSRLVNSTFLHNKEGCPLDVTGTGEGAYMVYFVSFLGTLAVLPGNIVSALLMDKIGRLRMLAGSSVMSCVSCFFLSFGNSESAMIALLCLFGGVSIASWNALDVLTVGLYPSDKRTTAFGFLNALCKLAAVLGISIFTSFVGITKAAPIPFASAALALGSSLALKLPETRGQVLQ

Plasma free parent fraction (fp) [1]: 42.6 ± 1.6%
BPND expected from maximum displacement (SV2A): ~1.0
Structure (SMILES): O=C1C[C@H](c2cc(F)c(F)c(F)c2)CN1Cc1ccncc1[18F] [[^18F]UCB-H]
